Assay results reported in ChEMBL document CHEMBL3885861, “Open TG-GATES”.

Organism: Rattus norvegicus
Assay: Open TG-GATES - Regimen: Daily Repeat
Type: toxicity, organism-based, Sprague-Dawley
Parameters: regimen Daily Repeat, gender Male, age 6 weeks
Settings: in vivo, po, route gavage; for APTT / Bas / Eos / Fbg / Hb / Ht / Lym / MCH / MCHC / MCV / Mono / Neu / PT / Plat / RBC / Ret / WBC: tissue Blood; for KIDNEY_L / KIDNEY_R / KIDNEY_TOTAL: tissue Kidney; for LIVER: tissue Liver; for A/G / ALP / ALT / AST / BUN / CRE / Ca / Cl / DBIL / GLC / IP / K / LDH / Na / PL / RALB / TBIL / TC / TG / TP / gamma-GTP: tissue Plasma
[1] = 0 mg/kg, 72 h, dose level Control, time 3 day
[2] = 0 mg/kg, […], dose level Control, time 7 day
[3] = 0 mg/kg, […], dose level Control, time 14 day
[4] = 0 mg/kg, […], dose level Control, time 28 day
[5] = 30 mg/kg, 72 h, dose level Low, time 3 day
[6] = 30 mg/kg, […], dose level Low, time 7 day
[7] = 30 mg/kg, […], dose level Low, time 14 day
[8] = 30 mg/kg, […], dose level Low, time 28 day

CC[C@H]1[C@@H]2C[C@H]3[C@@H]4N(C)c5ccccc5[C@]45C[C@@H]([C@@H]2[C@H]5O)N3[C@@H]1O [AJMALINE]
TERMINAL_BW [1]: 211 g
APTT [1]: 16.4 s
Bas [1]: 0%
Eos [1]: 1%
Fbg [1]: 218.4 mg/dL
Hb [1]: 13 g/dL
Ht [1]: 40.1%
Lym [1]: 75.8%
MCH [1]: 21.1 pg
MCHC [1]: 32.4%
MCV [1]: 65 fL
Mono [1]: 10.4%
Neu [1]: 13%
PT [1]: 11.6 s
Plat [1]: 115.1 x10_4/uL
RBC [1]: 617.4 x10_4/ul
Ret [1]: 8%
WBC [1]: 104.3 x10_2/uL
KIDNEY_L [1]: 0.9 g
KIDNEY_R [1]: 1 g
KIDNEY_TOTAL [1]: 1.9 g
LIVER [1]: 10.3 g
A/G [1]: 2.2
ALP [1]: 1003.6 IU/L
ALT [1]: 37 IU/L
AST [1]: 63.8 IU/L
BUN [1]: 19.4 mg/dL
CRE [1]: 0.5 mg/dL
Ca [1]: 11.1 mg/dL
Cl [1]: 102.8 meq/L
DBIL [1]: 0.008 mg/dL
GLC [1]: 199.8 mg/dL
IP [1]: 7.4 mg/dL
K [1]: 4.5 meq/L
LDH [1]: 87.6 IU/L
Na [1]: 140 meq/L
PL [1]: 152.6 mg/dL
RALB [1]: 3.9 g/dL
TBIL [1]: 0.3 mg/dL
TC [1]: 79.4 mg/dL
TG [1]: 101.4 mg/dL
TP [1]: 5.8 g/dL
gamma-GTP [1]: 1.8 IU/L
TERMINAL_BW [2]: 249.2 g
TERMINAL_BW [3]: 302.2 g
TERMINAL_BW [4]: 382 g
APTT [2]: 16.1 s
Bas [2]: 0%
Eos [2]: 1%
Fbg [2]: 220.4 mg/dL
Hb [2]: 13 g/dL
Ht [2]: 39.8%
Lym [2]: 82.2%
MCH [2]: 20.6 pg
MCHC [2]: 32.6%
MCV [2]: 63.3 fL
Mono [2]: 5%
Neu [2]: 12.2%
PT [2]: 11.2 s
Plat [2]: 125.7 x10_4/uL
RBC [2]: 629.6 x10_4/ul
Ret [2]: 7%
WBC [2]: 107.8 x10_2/uL
APTT [3]: 17.8 s
Bas [3]: 0%
Eos [3]: 0.8%
Fbg [3]: 211.6 mg/dL
Hb [3]: 13.6 g/dL
Ht [3]: 41.6%
Lym [3]: 84.6%
MCH [3]: 20.6 pg
MCHC [3]: 32.9%
MCV [3]: 62.5 fL
Mono [3]: 4%
Neu [3]: 11%
PT [3]: 11.4 s
Plat [3]: 121.9 x10_4/uL
RBC [3]: 664.2 x10_4/ul
Ret [3]: 3.8%
WBC [3]: 121.7 x10_2/uL
APTT [4]: 17.6 s
Bas [4]: 0%
Eos [4]: 1.2%
Fbg [4]: 226.2 mg/dL
Hb [4]: 15.2 g/dL
Ht [4]: 45.3%
Lym [4]: 83.8%
MCH [4]: 19.1 pg
MCHC [4]: 33.5%
MCV [4]: 57 fL
Mono [4]: 5.6%
Neu [4]: 9.6%
PT [4]: 11.4 s
Plat [4]: 125.9 x10_4/uL
RBC [4]: 794.6 x10_4/ul
Ret [4]: 2%
WBC [4]: 105.2 x10_2/uL
KIDNEY_L [2]: 1 g
KIDNEY_R [2]: 1.1 g
KIDNEY_TOTAL [2]: 2.1 g
KIDNEY_L [3]: 1.2 g
KIDNEY_R [3]: 1.3 g
KIDNEY_TOTAL [3]: 2.5 g
KIDNEY_L [4]: 1.4 g
KIDNEY_R [4]: 1.4 g
KIDNEY_TOTAL [4]: 2.9 g
LIVER [2]: 12.3 g
LIVER [3]: 13.9 g
LIVER [4]: 16.5 g
A/G [2]: 1.9
ALP [2]: 1031.8 IU/L
ALT [2]: 37.4 IU/L
AST [2]: 67 IU/L
BUN [2]: 18.4 mg/dL
CRE [2]: 0.5 mg/dL
Ca [2]: 11.1 mg/dL
Cl [2]: 104.2 meq/L
DBIL [2]: 0.004 mg/dL
GLC [2]: 206.8 mg/dL
IP [2]: 7.9 mg/dL
K [2]: 4.4 meq/L
LDH [2]: 80.4 IU/L
Na [2]: 142.4 meq/L
PL [2]: 154 mg/dL
RALB [2]: 3.7 g/dL
TBIL [2]: 0.3 mg/dL
TC [2]: 79.8 mg/dL
TG [2]: 126.4 mg/dL
TP [2]: 5.7 g/dL
gamma-GTP [2]: 1.2 IU/L
A/G [3]: 1.9
ALP [3]: 756.6 IU/L
ALT [3]: 31 IU/L
AST [3]: 61.4 IU/L
BUN [3]: 20.6 mg/dL
CRE [3]: 0.5 mg/dL
Ca [3]: 10.9 mg/dL
Cl [3]: 104.2 meq/L
DBIL [3]: 0.008 mg/dL
GLC [3]: 206 mg/dL
IP [3]: 7.2 mg/dL
K [3]: 4.9 meq/L
LDH [3]: 90.6 IU/L
Na [3]: 141.6 meq/L
PL [3]: 148.4 mg/dL
RALB [3]: 3.8 g/dL
TBIL [3]: 0.3 mg/dL
TC [3]: 69.4 mg/dL
TG [3]: 126 mg/dL
TP [3]: 5.8 g/dL
gamma-GTP [3]: 1.4 IU/L
A/G [4]: 1.9
ALP [4]: 557 IU/L
ALT [4]: 29.8 IU/L
AST [4]: 57.6 IU/L
BUN [4]: 19.4 mg/dL
CRE [4]: 0.6 mg/dL
Ca [4]: 10.3 mg/dL
Cl [4]: 105.2 meq/L
DBIL [4]: 0.016 mg/dL
GLC [4]: 195 mg/dL
IP [4]: 6.3 mg/dL
K [4]: 4.7 meq/L
LDH [4]: 78.2 IU/L
Na [4]: 142.6 meq/L
PL [4]: 139 mg/dL
RALB [4]: 4 g/dL
TBIL [4]: 0.3 mg/dL
TC [4]: 62.6 mg/dL
TG [4]: 136.4 mg/dL
TP [4]: 6.2 g/dL
gamma-GTP [4]: 1.6 IU/L
TERMINAL_BW [5]: 214.3 g
APTT [5]: 16.2 s
Bas [5]: 0%
Eos [5]: 1.2%
Fbg [5]: 210 mg/dL
Hb [5]: 13 g/dL
Ht [5]: 39.3%
Lym [5]: 78%
MCH [5]: 21.7 pg
MCHC [5]: 33%
MCV [5]: 65.7 fL
Mono [5]: 8.4%
Neu [5]: 12.8%
PT [5]: 11.7 s
Plat [5]: 118 x10_4/uL
RBC [5]: 599 x10_4/ul
Ret [5]: 8.9%
WBC [5]: 93 x10_2/uL
KIDNEY_L [5]: 0.9 g
KIDNEY_R [5]: 0.9 g
KIDNEY_TOTAL [5]: 1.8 g
LIVER [5]: 10.4 g
A/G [5]: 2.1
ALP [5]: 904.4 IU/L
ALT [5]: 36.2 IU/L
AST [5]: 66.6 IU/L
BUN [5]: 18.2 mg/dL
CRE [5]: 0.5 mg/dL
Ca [5]: 11.1 mg/dL
Cl [5]: 102.6 meq/L
DBIL [5]: 0.024 mg/dL
GLC [5]: 198.2 mg/dL
IP [5]: 7.2 mg/dL
K [5]: 4.3 meq/L
LDH [5]: 113 IU/L
Na [5]: 139.6 meq/L
PL [5]: 141.4 mg/dL
RALB [5]: 3.8 g/dL
TBIL [5]: 0.3 mg/dL
TC [5]: 78.2 mg/dL
TG [5]: 85 mg/dL
TP [5]: 5.6 g/dL
gamma-GTP [5]: 0.8 IU/L
TERMINAL_BW [6]: 248 g
TERMINAL_BW [7]: 297.8 g
TERMINAL_BW [8]: 375.4 g
APTT [6]: 17 s
Bas [6]: 0%
Eos [6]: 1.2%
Fbg [6]: 229.4 mg/dL
Hb [6]: 13 g/dL
Ht [6]: 39.1%
Lym [6]: 75.4%
MCH [6]: 21.4 pg
MCHC [6]: 33.3%
MCV [6]: 64.2 fL
Mono [6]: 10.2%
Neu [6]: 13.6%
PT [6]: 11.4 s
Plat [6]: 118.3 x10_4/uL
RBC [6]: 609.8 x10_4/ul
Ret [6]: 7%
WBC [6]: 106.1 x10_2/uL
APTT [7]: 16.7 s
Bas [7]: 0%
Eos [7]: 1%
Fbg [7]: 224 mg/dL
Hb [7]: 13.9 g/dL
Ht [7]: 41.9%
Lym [7]: 85%
MCH [7]: 20.3 pg
MCHC [7]: 33.1%
MCV [7]: 61.4 fL
Mono [7]: 4.2%
Neu [7]: 10%
PT [7]: 11.1 s
Plat [7]: 121.6 x10_4/uL
RBC [7]: 683.4 x10_4/ul
Ret [7]: 4.3%
WBC [7]: 138.2 x10_2/uL
APTT [8]: 17.2 s
Bas [8]: 0%
Eos [8]: 1%
Fbg [8]: 221.6 mg/dL
Hb [8]: 15.4 g/dL
Ht [8]: 45.5%
Lym [8]: 83%
MCH [8]: 20.4 pg
MCHC [8]: 33.8%
MCV [8]: 60.3 fL
Mono [8]: 4.6%
Neu [8]: 11.4%
PT [8]: 11.2 s
Plat [8]: 96.6 x10_4/uL
RBC [8]: 754.8 x10_4/ul
Ret [8]: 2.1%
WBC [8]: 110.2 x10_2/uL
KIDNEY_L [6]: 1 g
KIDNEY_R [6]: 1 g
KIDNEY_TOTAL [6]: 2 g
KIDNEY_L [7]: 1.2 g
KIDNEY_R [7]: 1.2 g
KIDNEY_TOTAL [7]: 2.3 g
KIDNEY_L [8]: 1.3 g
KIDNEY_R [8]: 1.3 g
KIDNEY_TOTAL [8]: 2.7 g
LIVER [6]: 12 g
LIVER [7]: 13.8 g
LIVER [8]: 16.1 g
A/G [6]: 1.8
ALP [6]: 975.8 IU/L
ALT [6]: 34.8 IU/L
AST [6]: 65.6 IU/L
BUN [6]: 20.2 mg/dL
CRE [6]: 0.5 mg/dL
Ca [6]: 11.4 mg/dL
Cl [6]: 104.4 meq/L
DBIL [6]: 0.012 mg/dL
GLC [6]: 196.8 mg/dL
IP [6]: 7.3 mg/dL
K [6]: 4.7 meq/L
LDH [6]: 119.6 IU/L
Na [6]: 141.4 meq/L
PL [6]: 160 mg/dL
RALB [6]: 3.8 g/dL
TBIL [6]: 0.3 mg/dL
TC [6]: 82 mg/dL
TG [6]: 123.2 mg/dL
TP [6]: 5.9 g/dL
gamma-GTP [6]: 1.4 IU/L
A/G [7]: 2.2
ALP [7]: 942.2 IU/L
ALT [7]: 32.4 IU/L
AST [7]: 61 IU/L
BUN [7]: 20 mg/dL
CRE [7]: 0.5 mg/dL
Ca [7]: 10.9 mg/dL
Cl [7]: 105.2 meq/L
DBIL [7]: 0.01 mg/dL
GLC [7]: 201 mg/dL
IP [7]: 7.1 mg/dL
K [7]: 4.5 meq/L
LDH [7]: 104.8 IU/L
Na [7]: 141.4 meq/L
PL [7]: 157.6 mg/dL
RALB [7]: 3.9 g/dL
TBIL [7]: 0.3 mg/dL
TC [7]: 80 mg/dL
TG [7]: 106.8 mg/dL
TP [7]: 5.8 g/dL
gamma-GTP [7]: 1.8 IU/L
A/G [8]: 1.8
ALP [8]: 659.2 IU/L
ALT [8]: 30.8 IU/L
AST [8]: 62.8 IU/L
BUN [8]: 19.6 mg/dL
CRE [8]: 0.6 mg/dL
Ca [8]: 10.5 mg/dL
Cl [8]: 105.2 meq/L
DBIL [8]: 0.008 mg/dL
GLC [8]: 198.2 mg/dL
IP [8]: 6.2 mg/dL
K [8]: 4.5 meq/L
LDH [8]: 109.6 IU/L
Na [8]: 142.4 meq/L
PL [8]: 158.2 mg/dL
RALB [8]: 3.9 g/dL
TBIL [8]: 0.3 mg/dL
TC [8]: 71.8 mg/dL
TG [8]: 190.2 mg/dL
TP [8]: 6.1 g/dL
gamma-GTP [8]: 1 IU/L
